The text below walks through data of US20160331662A1, “Compositions that Inhibit and Prevent the Formation of Dental Caries and Methods of Using the Same” (priority 2014, published 2016).

Test [1] has as its system AgI/II VheI (S. mutans). The test is described as follows: SPR binding of SRCR peptide to immobilized surface protein (Example 3). The procedure:
(§1) Binding of the SRCR peptide […] (SEQ ID NO: 10) to immobilized bacterial surface proteins was determined using procedures as described in Example 1.
(§2) The interaction of the SRCR peptide […] (SEQ ID NO:10) with immobilized bacterial surface proteins AgI/II, SspB and GbpC as examined by surface plasmon resonance studies are shown in FIGS. 27A, 27B and 27C respectively, and binding affinities determined from these studies are listed in Table 8.
For orientation: SPR reads the build-up and loss of mass on a sensor chip optically.

Test [2] relates to GbpC (S. mutans). Described as above. Here is the method:
as §1, §2

Test [3] deals with SspB VheI (S. gordonii). The description is as above. Here is the method: as §1, §2
The target of test [4] is T1, iSRCR1 (Homo sapiens, UniProt Q9UGM3).
T1 construct: strongly proves that a single SRCR domain contains the adherence sites for AgI/II and SspB; made in house; host or cells: Drosophila expression system
T1 sequence (Q9UGM3 102-202 limits assumed): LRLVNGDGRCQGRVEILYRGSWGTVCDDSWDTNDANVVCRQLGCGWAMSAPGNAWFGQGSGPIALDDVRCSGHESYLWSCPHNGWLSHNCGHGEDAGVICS
Description: SPR binding of analytes to immobilized iSRCR1 (CM5 chip, 1:1 Langmuir). As to conditions: for direct binding to immobilized iSRCR1 (in words): substance alone over CM5 chip. Here is the method:
(§3) Real time binding analyses of the SRCR domains with AgI/II fragments were carried out using the BIAcore 2000 system. […] Self association of iSRCR1 or iSRCR123 (at 2 μM) were also determined in a similar manner as described above. Finally to determine the effect of calcium SPR analysis was carried out by dialyzing the analytes and ligands in binding buffer devoid of CaCl2.
(§4) In addition, the SRCR holding two distinct surfaces compounded the elucidation of individual kinetics, and presently there are no modeling protocols available to determine the individual affinities for such a system, therefore for simplicity we have utilized a single site 1:1 Langmuir model. All experiments were carried out in triplicates and the kinetics of the association (KA) and dissociation (KD) rate constants were deduced using the 1:1 Langmuir Kinetic model on the BIA-Evaluation software. The concentration (C in μM) of analyte (FL^AgI/II or FL^SspB at 2 μM) that adhered to the immobilized ligand (iSRCR1, iSRCR123) within the flow cell was calculated using the formula C=(RU/MW)×(1/V), where RU is resonance unit (1 RU=1 pg of bound protein), MW is molecular weight of analyte and V is volume of flow cell (1.2×10^−10 L).

Test [5] concerns the target T2, iSRCR123 (Homo sapiens, UniProt Q9UGM3).
T2 construct: multiple SRCR domains have better adherence capability compared to that of a single SRCR domain; made in house; host or cells: Drosophila expression system
Description: SPR binding of analytes to immobilized iSRCR123 (CM5 chip, 1:1 Langmuir). Conditions: for direct binding to immobilized iSRCR123 (in words): substance alone over CM5 chip. The procedure: as §3, §4

In test [6] the target is T3, iSRCR1 (Deglycosylated) (Homo sapiens, UniProt Q9UGM3).
T3 construct: strongly proves that a single SRCR domain contains the adherence sites for AgI/II and SspB; made in house; host or cells: Drosophila expression system
T3 sequence (Q9UGM3 102-202): as the sequence (Q9UGM3 102-202 limits assumed) above
Description: SPR binding of analytes to on-chip deglycosylated iSRCR1. As to conditions: ligand iSRCR1 (Deglycosylated). Here is the method:
as §3
(§5) On-chip Deglycosylation of the iSRCR1 and iSRCR123 was carried out after immobilizing them on CM5 sensor chip. Enzymatic deglycosylation was done to remove N- and O-linked carbohydrates from iSRCR1 and iSRCR123. Briefly, after immobilization of iSRCR1 and iSRCR123, deglycosylation was carried out at native conditions by incubating the entire chip surface externally with a cocktail containing a total reaction volume of 40 μl made up of 4 μl of 10×G7reaction buffer, 4 μl of 10% NP40, 4 μl of Neuraminidase (Sigma), 18 μl water and 10 μl of O-glycosidase (New England Biolabs, Inc.,) and similarly following manufacturers protocols for EndoH (New England Biolabs, Inc). Later, the chip was sealed and incubated overnight at 37° C. Subsequently the chip was thoroughly washed with binding buffer (20 mM HEPES, 150 mM NaCl, 2.5 mM CaCl2) to remove the deglycosylating enzymes and other remnants. Binding studies with FL^AgI/II and FL^SspB and subfragments were then carried out as described above and regenerated as described in Table 2.
as §4

Test [7] addresses T4, iSRCR123 (Deglycosylated) (Homo sapiens, UniProt Q9UGM3).
T4 construct: multiple SRCR domains have better adherence capability compared to that of a single SRCR domain; made in house; host or cells: Drosophila expression system
Description: SPR binding of analytes to on-chip deglycosylated iSRCR123. As to conditions: ligand iSRCR123 (Deglycosylated). The procedure: as §3, §5, §4

Test [8] deals with T1, iSRCR1. The test is described as follows: Competition adherence SPR on immobilized iSRCR1. The format is binding. As to conditions: FL injected first. Here is the method:
(§6) To determine whether AgI/II domains bound to the same site on SRCR domains, competitive binding SPR experiments were conducted in triplicates as previously described where each fragment of AgI/II (FL, A3VP1, or C123) or SspB (FL, A3VP1 or C123) was initially passed over the chip surface immobilized with either iSRCR1, iSRCR123 or SAG for 60 seconds to saturate available binding sites. The response curve of AgI/II or SspB first fragment was recorded, where the maximal RU (RU1) was considered as the base line for the second injection, and thereafter the competing fragment was injected and its response was recorded as RU2. The adherence of the second fragment was then calculated (RU2−RU1) for all SPR competing assay as reported earlier.

Test [9] deals with T2, iSRCR123. The test is described as follows: Competition adherence SPR on immobilized iSRCR123. The format is binding. Conditions: FL injected first. Here is the method: as §6
Test [10] addresses T5, SAG (Homo sapiens, UniProt Q9UGM3).
T5 construct: from tissue; host or cells: saliva (purified SAG, gift)
Conditions: from reference [15]; read-out: affinity of interaction with SAG; cited from earlier work.

Test [11] concerns S. gordonii DL1. Description: Flow cytometric analysis of iSRCR adherence to bacteria. The format is cell-based. As to conditions: 10 μM, compared with S. mutans. The procedure: (§7) S. mutans UA159 and S. gordonii DL1 cells were grown overnight in TSY broth media at 37° C. and washed thoroughly with FACS buffer (20 mM HEPES pH 7.4, 150 mM NaCl and 5% non-fat dry milk) to reduce non-specific binding. Subsequently, 10 μM of iSRCR1 or iSRCR123 were added to 100 μl of cells (1×10^7 cells/ml) in binding buffer (FACS buffer+2.5 mM CaCl2) and incubated for 60 min at 37° C. The cells were later washed thoroughly with binding buffer to remove unbound iSRCRs. Subsequently, Anti-His tag Alexafluor 488 antibody (1:50 dilution) (EMD Millipore, Inc) that adheres to the His tag present on SRCRs was added to the cells and incubated for 30 min, washed three times and resuspended in 200 μl of binding buffer. Samples without iSRCRs served as control. Samples were then assayed using the FACScan machine (BD Biosciences) at the Analytical and Preparative Cytometry Facility (APCF) at UAB, and data obtained was analyzed using FlowJo 7.2.4 software.
(In general: A flow cytometer gives signals particle by particle.)

The subject of test [12] is S. mutans UA159. The test is described as above. Conditions: 10 μM. The format is cell-based. Here is the method: as §7
Test [13] deals with S. mutans UA159. Description: Confocal microscopy of iSRCR adherence to bacteria. The format is cell-based. Conditions: 10 μM. The procedure: S. mutans UA159 and S. gordonii DL1 were grown overnight in TSY (30 g/L of Trypticase soy broth and 0.5 g/L yeast extract, pH 7.2) media on an eight-well Lab Tek Chamber slide system (Sigma). The cells were fixed with 3% paraformaldehyde, washed with binding buffer (20 mM HEPES pH 7.4, 150 mM NaCl and 2.5 mM CaCl2), and thereafter iSRCR1 or iSRCR123 (10 μM) were added to the cells and incubated for 60 min. The unbound SRCRs were removed by repeated washing using the binding buffer. Subsequently, Alexa fluor 488 conjugated Anti-His-tag antibody (EMD Millipore, Inc) (1:50 dilution) that can bind to the His Tag on SRCRs was added. After 60 min incubation the unbound antibody was washed away thoroughly using binding buffer, and the chamber walls were gently removed. Cover slips were then mounted with 15 μl of fluoromount-G with DAPI (Southern Biotech Inc) to stain bacterial nuclei and were sealed until ready to be imaged. The experiment without SRCRs served as control. All slides were imaged using Leica SP1 UV Confocal Laser Scanning Microscope and Zeiss LSM 710 Confocal Laser Scanning Microscope at the UAB-High resolution imaging facility (UAB-HRIF).

Test [14] relates to S. gordonii DL1. Description: Aggregation assay (OD700 over 60 min). The format is cell-based. As to conditions: iSRCR 10 μM or SAG, 6 mM CaCl2. Here is the method: (§8) Aggregation assays were performed as described earlier with slight modifications. Briefly, S. mutans UA159 and S. gordonii DL1 cells were grown in TSY broth media overnight at 37° C. in the presence of 5% CO2. The bacteria were centrifuged at 5000×g and washed with a buffer containing 20 mM HEPES pH 7.4, 150 mM NaCl and re-suspended to an approximate OD700 of 1. The bacterial suspension (900 μl) was mixed with 100 μl of SAG or iSRCR1 (10 μM) or iSRCR123 ([…]) or commercially synthesized (Think Peptides, Inc) SRCRP2 peptide with fluorescein amidite (FAM) at the carboxyl end ([…]-[FAM]) (SEQ ID NO:9, at both 400 μg/ml and 1 mg/ml) in the presence of 6 mM CaCl2 and aggregation was measured by recording OD700over 60 min at 5 min intervals, where the buffer alone was used as control. All experiments were carried out at least five times, and the results were analyzed with One-way ANOVA. Post-hoc testing where *, P<0.05 was considered statistically significant and results were presented as the percentage of cells aggregated.

Test [15] concerns S. mutans UA159. The test is described as follows: Aggregation assay (OD700 over 60 min). The format is cell-based. Conditions: iSRCR 10 μM or SAG, 6 mM CaCl2. Here is the method:
as §8

Sequence of AgI/II VheI (S. mutans) (P23504 464-840 limits assumed): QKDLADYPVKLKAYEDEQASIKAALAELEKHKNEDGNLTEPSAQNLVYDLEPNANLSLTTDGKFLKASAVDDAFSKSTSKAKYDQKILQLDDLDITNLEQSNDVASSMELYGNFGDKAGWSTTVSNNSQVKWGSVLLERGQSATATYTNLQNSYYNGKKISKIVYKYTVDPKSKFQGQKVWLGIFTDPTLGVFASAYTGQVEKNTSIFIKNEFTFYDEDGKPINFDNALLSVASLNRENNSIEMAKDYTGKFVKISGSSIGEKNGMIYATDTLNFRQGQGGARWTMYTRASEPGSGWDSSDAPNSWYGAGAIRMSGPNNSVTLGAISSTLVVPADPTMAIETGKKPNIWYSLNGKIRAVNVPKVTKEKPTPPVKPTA
T2 sequence (Q9UGM3 102-463 limits assumed): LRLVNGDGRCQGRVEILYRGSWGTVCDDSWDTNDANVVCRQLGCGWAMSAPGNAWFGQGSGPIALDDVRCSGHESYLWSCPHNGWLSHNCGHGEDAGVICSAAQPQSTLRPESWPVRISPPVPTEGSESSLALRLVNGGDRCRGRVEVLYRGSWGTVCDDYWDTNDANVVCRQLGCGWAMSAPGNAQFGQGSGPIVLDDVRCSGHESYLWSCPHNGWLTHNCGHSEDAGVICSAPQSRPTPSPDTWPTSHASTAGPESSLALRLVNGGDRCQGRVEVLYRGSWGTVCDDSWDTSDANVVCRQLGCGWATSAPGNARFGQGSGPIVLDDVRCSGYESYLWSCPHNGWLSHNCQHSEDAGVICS
T4 sequence (Q9UGM3 102-463 limits assumed): as above
T5 sequence (Q9UGM3 20-2413): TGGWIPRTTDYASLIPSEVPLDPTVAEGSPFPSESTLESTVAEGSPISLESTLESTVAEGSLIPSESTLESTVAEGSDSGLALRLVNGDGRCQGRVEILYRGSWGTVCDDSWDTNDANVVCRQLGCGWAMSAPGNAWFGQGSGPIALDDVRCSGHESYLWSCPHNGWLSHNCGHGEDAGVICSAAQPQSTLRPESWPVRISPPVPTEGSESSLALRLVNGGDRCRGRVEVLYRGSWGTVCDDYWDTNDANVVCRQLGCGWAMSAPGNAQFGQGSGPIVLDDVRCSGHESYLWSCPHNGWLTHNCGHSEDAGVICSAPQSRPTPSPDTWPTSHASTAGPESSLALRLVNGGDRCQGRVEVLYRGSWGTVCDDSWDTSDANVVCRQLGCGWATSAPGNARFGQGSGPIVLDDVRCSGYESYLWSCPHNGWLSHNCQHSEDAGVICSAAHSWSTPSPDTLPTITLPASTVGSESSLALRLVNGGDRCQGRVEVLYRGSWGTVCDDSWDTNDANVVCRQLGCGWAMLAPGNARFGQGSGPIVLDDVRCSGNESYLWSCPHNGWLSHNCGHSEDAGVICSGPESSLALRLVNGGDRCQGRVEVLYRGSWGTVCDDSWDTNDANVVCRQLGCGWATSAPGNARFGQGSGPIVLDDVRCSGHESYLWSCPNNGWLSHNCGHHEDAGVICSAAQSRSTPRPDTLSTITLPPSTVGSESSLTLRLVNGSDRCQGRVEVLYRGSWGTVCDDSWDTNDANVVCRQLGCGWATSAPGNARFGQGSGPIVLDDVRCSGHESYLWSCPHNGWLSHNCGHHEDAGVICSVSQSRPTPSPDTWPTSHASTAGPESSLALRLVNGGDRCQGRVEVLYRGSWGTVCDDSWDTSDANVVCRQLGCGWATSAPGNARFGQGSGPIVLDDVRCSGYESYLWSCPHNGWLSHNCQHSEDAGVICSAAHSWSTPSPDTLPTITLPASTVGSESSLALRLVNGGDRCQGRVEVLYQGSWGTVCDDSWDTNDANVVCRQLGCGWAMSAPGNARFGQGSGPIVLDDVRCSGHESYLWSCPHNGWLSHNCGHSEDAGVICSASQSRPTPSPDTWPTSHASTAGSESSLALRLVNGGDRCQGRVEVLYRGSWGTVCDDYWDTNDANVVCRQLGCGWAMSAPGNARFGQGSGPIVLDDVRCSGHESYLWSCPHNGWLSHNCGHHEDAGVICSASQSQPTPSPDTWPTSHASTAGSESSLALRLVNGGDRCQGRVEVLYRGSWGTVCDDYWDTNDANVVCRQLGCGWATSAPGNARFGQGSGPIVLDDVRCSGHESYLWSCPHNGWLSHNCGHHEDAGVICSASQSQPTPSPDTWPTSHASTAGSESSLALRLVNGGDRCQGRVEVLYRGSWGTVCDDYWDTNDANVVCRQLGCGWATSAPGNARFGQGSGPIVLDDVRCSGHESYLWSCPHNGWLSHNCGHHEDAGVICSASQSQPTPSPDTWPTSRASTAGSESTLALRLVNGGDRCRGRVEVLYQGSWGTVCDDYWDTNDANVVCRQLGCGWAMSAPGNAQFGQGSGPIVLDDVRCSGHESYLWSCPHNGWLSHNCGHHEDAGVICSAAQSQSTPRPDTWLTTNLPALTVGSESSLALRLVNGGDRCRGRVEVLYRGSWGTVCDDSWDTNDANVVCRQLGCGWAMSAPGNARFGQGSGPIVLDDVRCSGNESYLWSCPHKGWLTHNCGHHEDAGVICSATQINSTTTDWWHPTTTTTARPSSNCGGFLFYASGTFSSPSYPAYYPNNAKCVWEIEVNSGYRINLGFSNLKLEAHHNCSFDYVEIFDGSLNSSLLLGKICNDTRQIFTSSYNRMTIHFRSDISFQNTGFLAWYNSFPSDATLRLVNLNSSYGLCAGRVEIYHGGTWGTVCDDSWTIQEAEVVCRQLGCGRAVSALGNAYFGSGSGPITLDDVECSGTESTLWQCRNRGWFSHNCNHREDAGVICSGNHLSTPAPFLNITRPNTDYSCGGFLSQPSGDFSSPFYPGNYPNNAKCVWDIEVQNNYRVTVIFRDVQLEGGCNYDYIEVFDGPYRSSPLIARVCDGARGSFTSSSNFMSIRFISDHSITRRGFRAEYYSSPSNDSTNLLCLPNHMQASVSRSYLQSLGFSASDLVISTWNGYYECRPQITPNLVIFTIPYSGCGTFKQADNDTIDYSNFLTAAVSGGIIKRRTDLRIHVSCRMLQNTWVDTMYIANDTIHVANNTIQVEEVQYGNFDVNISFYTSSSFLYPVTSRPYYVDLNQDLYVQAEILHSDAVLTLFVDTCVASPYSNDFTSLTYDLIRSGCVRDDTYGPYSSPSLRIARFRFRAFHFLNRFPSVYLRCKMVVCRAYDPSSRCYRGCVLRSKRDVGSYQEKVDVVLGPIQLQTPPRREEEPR

For ETNDANVVARQL [SRCR peptide], in test [1], the KA came out at 1.56e+08 M⁻¹, the Kd turned out to be 6.42 nM, the Rmax turned out to be 43.3 Ru and the ka is on record as 1.08 × 10^7 1/ms. Further, in test [1], the kd was 0.696 s⁻¹. Further, in test [2], the KA was 2.57e+08 M⁻¹, the Kd was 3.89 nM, the Rmax came to 232 Ru and the ka is 1.47 × 10^7 1/ms. In test [2], this substance came in with a kd of 0.0573 s⁻¹. Moreover, in test [3], the KA turned out to be 1.42e+08 M⁻¹, the Kd worked out at 7.02 nM, the Rmax was 110 Ru and the ka was 4.44 × 10^6 1/ms. The same substance returned a kd in test [3] of 0.0312 s⁻¹.

Consider Lysozyme [reference compound], for which the “direct binding to immobilized iSRCR1 (in words)” value in [4] was “binding”. Further, the “direct binding to immobilized iSRCR123 (in words)” value in [5] is “binding”.

Regarding “FL^AgI/II: S. mutans AgI/II full length construct (167.5 kDa)”, the KA stood at 1.31e+08 M⁻¹ in test [4] (ligand iSRCR1), 865000 M⁻¹ in [6], 1.34e+08 M⁻¹ in test [5] (ligand iSRCR123) and 6.82e+06 M⁻¹ in [7]. For the same substance, the Kd was 7.69 nM in [4] (ligand iSRCR1); 1160 nM in test [6]; 7.46 nM in test [5] (ligand iSRCR123); 147 nM in [7]; 33.3 nM in test [10]. Besides, the ka amounted to 127000 M⁻¹ s⁻¹ in [4] (ligand iSRCR1), 49700 M⁻¹ s⁻¹ in [6], 99700 M⁻¹ s⁻¹ in test [5] (ligand iSRCR123) and 3160 M⁻¹ s⁻¹ in test [7]. For the same substance, the kd in test [4] (ligand iSRCR1) was 0.000976 s⁻¹; in test [6] it was 0.0575 s⁻¹; in [5] (ligand iSRCR123) it was 0.000743 s⁻¹; in test [7], 0.000464 s⁻¹. The “quantity of protein that adhered to iSRCR123, higher than iSRCR1” value in [5] (analyte at 2 μM, iSRCR123 versus iSRCR1) is listed as 16%. Moreover, the “inhibition of binding of the A3VP1 fragment of the same protein” value in test [8] was 46%; in test [9], 44%. In addition, the “inhibition of binding of the C123 fragment of the same protein” value in test [8] was 36%; in test [9] it was 25%.

As to “iSRCR123: recombinant construct of three tandem SRCR domains of Gp340 (43 kDa)”, the “adherence by FACS (in words)” value in test [11] is given as “lower adherence”. Further, the “increase in fluorescence intensity compared to the control” value in test [12] is listed as about 100 fold. For the same substance, the “binding to cells by confocal microscopy (in words)” value in [13] is listed as “binding”. The “percentage of cells aggregated” value in [14] is given as 48%; in [15], 69%.

Regarding thaumatin [reference compound], the “direct binding to immobilized iSRCR1 (in words)” value in test [4] is given as “not”. Moreover, in test [5], the “direct binding to immobilized iSRCR123 (in words)” value is recorded as “not”.
